Measured values reported in patent US20230000807A1, “CBD ORAL FORMULATION” (Clear Lake Research, LLC, priority 2020, published 2023).

Assays:
CB2 receptors [1] = target: T1, CB2 receptors (Homo sapiens, UniProt P34972); assay: receptor affinity; type: binding; conditions: estimated; times the affinity of CBD
Method: Because CB2 receptors have a low affinity for CBD, a relatively large amount of CBD should be used for efficacy. In a specific implementation, a thin film strip has 100 mg CBD. In alternatives, the oral thin film is as little as 20 mg CBD. Because CBD is a relatively expensive component, the ratio of CBD to other components is more prone to cost/efficacy trade-offs than other components of the formulation. Advantageously, a low does of CBD, of 50 mg or less, acts as a stimulant, making a 20 mg to 50 mg formulation appropriate for formulations that have a goal of reducing the amount of CBD necessary and meeting one of the goals of a concentration improver/mood enhancer, which is stimulation.
A greater proportion of CBD may be desirable for the purpose of binding to theorized CBD3 receptors or other presently poorly defined receptors with less affinity for CBD. A high dose of CBD, over 100 mg up to less than 250 mg can have a sedative effect that may be effective for certain individuals, though it is unlikely desirable to reach 250 mg. If CBD is replaced with by endocannabinoid with (an estimated) 1,000 times the affinity of CBD, such as 2-Lineoleoyl-glycerol (3443-82-1) or 2-Palmitolyl-glycerol (23470-00-0), an alternative implementation of the oral thin film could have 0.025 mg to 0.1 mg endocannabinoid, but the formulation would likely be much more expensive than CBD.

[2] = applied topically; cited from earlier work
CB2 receptors [3] = target: T1, CB2 receptors; conditions: cited from earlier work

T1 sequence (P34972 whole entry): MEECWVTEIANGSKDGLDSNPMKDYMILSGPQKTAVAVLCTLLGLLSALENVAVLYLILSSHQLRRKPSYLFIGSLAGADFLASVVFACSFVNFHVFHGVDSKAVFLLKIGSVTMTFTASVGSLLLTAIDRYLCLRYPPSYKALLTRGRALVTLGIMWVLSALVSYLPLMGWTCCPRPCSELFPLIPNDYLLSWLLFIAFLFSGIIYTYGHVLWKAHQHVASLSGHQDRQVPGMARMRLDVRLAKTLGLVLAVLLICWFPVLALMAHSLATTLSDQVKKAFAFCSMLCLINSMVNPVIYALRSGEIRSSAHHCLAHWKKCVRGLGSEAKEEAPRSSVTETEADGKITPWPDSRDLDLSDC

## 2-Lineoleoyl-glycerol
CB2 receptors [1]
  affinity relative to CBD: ~1,000 times

## 2-Palmitolyl-glycerol
CB2 receptors [1]
  affinity relative to CBD: ~1,000 times

## C=C(C)[C@@H]1CCC(C)=C[C@H]1c1c(O)cc(CCCCC)cc1O [CBD, cannabidiol]
[2]
  time to have a significant pain relief impact: about 30 minutes
CB2 receptors [3]
  affinity of CB2 receptors for the substance: low affinity
